Reference: patent US20250320184A1 (SIRONAX LTD., priority 2022, published 2025)

What follows are molecules tested against T1, SARM1 (50-724) (Homo sapiens, UniProt Q6SZW1) (assay: biochemical). Details: not given.
T1 sequence (Q6SZW1 50-724): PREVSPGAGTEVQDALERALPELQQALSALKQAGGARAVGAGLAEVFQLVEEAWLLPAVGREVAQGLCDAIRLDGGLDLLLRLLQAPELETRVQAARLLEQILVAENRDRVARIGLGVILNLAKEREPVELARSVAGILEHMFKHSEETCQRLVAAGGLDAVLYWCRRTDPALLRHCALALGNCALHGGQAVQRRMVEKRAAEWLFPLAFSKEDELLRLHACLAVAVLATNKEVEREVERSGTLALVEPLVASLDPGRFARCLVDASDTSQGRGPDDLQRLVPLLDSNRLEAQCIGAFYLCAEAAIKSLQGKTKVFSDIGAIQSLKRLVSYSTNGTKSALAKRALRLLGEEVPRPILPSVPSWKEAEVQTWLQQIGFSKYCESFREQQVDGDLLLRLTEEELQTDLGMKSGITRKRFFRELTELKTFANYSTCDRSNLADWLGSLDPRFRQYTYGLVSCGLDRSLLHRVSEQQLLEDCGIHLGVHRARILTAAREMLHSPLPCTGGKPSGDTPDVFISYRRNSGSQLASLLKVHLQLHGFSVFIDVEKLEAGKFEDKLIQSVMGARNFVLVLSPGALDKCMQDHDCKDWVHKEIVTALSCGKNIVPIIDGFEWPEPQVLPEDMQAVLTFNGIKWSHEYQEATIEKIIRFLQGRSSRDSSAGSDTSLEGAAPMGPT

IC50, > 1000 nM:
CC(Nc1ccc2nc[nH]c(=O)c2n1)c1c(Cl)ccc(F)c1Cl (single isomer, unassigned) [Compound 383]
CC1CN(S(=O)(=O)Nc2ccc3c(c2)C(=O)NCC3)CC(C)O1 (centres unmarked) [Example 165, 2,6-dimethyl-N-(1-oxo-1,2,3,4-tetrahydroisoquinolin-7-yl)morpholine-4-sulfonamide]
CC(Nc1ccc2nc[nH]c(=O)c2n1)c1ccc(F)c(Cl)c1Cl (single isomer, unassigned) [Compound 385]
Cc1c(F)cccc1S(=O)(=O)Nc1cccc(N2CCCC2=O)c1 [Compound 27, 3-fluoro-2-methyl-N-(3-(2-oxopyrrolidin-1-yl)phenyl)benzenesulfonamide]
Cc1sc(C(C)Nc2ccc3c(C)n(CC(N)=O)nc3c2)nc1Cl (single isomer, unassigned) [Compound 381]
Cc1c(F)cccc1S(=O)(=O)Nc1ccc2c(c1)CC(=O)NC2 [Compound 7, 3-fluoro-2-methyl-N-(3-oxo-1,2,3,4-tetrahydroisoquinolin-6-yl)benzenesulfonamide]
CC(Nc1ccc2nc[nH]c(=O)c2n1)c1c(F)ccc(Cl)c1Cl (single isomer, unassigned) [Compound 388]
CC1(C)CCCCN1S(=O)(=O)Nc1ccc2c(c1)C(=O)NCC2 [Example 168, 2,2-dimethyl-N-(1-oxo-1,2,3,4-tetrahydroisoquinolin-7-yl)piperidine-1-sulfonamide]
O=C1NCCc2ccc(NS(=O)(=O)c3cc(F)cc(Br)c3)cc21 [Compound 12, 3-bromo-5-fluoro-N-(1-oxo-1,2,3,4-tetrahydroisoquinolin-7-yl)benzenesulfonamide]
Cc1c2ccc(NC(C)c3sc(Cl)nc3Cl)cc2nn1CC(N)=O (single isomer, unassigned) [Compound 347A]

IC50, 500 to 1000 nM:
CC(Nc1ccc2ccnn2c1)c1cccc(Cl)c1Cl (racemic) [Example 140, N-(1-(2,3-dichlorophenyl)ethyl)pyrazolo[1,5-a]pyridin-6-amine]
Cc1c(F)cccc1S(=O)(=O)Nc1ccc2cn[nH]c2c1 [Compound 25, 3-fluoro-N-(1H-indazol-6-yl)-2-methylbenzenesulfonamide]
CCCC(Nc1ccc2c(c1)C(=O)NCC2)c1cc(C)cc(F)c1 (racemic) [Example 125, 7-((1-(3-fluoro-5-methylphenyl)butyl)amino)-3,4-dihydroisoquinolin-1(2H)-one]

IC50, < 100 nM:
Cc1cn[nH]c1-n1cnc2c(F)cc(NC(C)c3nc(Cl)c(Cl)s3)cc2c1=O (racemic) [Example 371, 6-((1-(4,5-dichlorothiazol-2-yl)ethyl)amino)-8-fluoro-3-(4-methyl-1H-pyrazol-5-yl)quinazolin-4(3H)-one]
CC(Nc1ccc2cc[nH]c(=O)c2c1)c1cccc(Cl)c1Cl (racemic) [Example 103, 7-((1-(2,3-dichlorophenyl)ethyl)amino)isoquinolin-1(2H)-one]
Cc1n[nH]c(=O)c2nc(NC(C)c3c(Cl)ccc(F)c3Cl)ccc12 (racemic) [Compound 314, 2-((1-(2,6-dichloro-3-fluorophenyl)ethyl)amino)-5-methylpyrido[2,3-d]pyridazin-8(7H)-one]
CC(Nc1ccc2nc[nH]c(=O)c2c1)c1nc(Cl)c(Cl)s1 (centres unmarked) [Compound 202, 6-((1-(4,5-dichlorothiazol-2-yl)ethyl)amino)quinazolin-4(3H)-one]
Cc1c[nH]c(=O)c2cc(NS(=O)(=O)c3cccc(Cl)c3Cl)ccc12 [Compound 188, 2,3-dichloro-N-(4-methyl-1-oxo-1,2-dihydroisoquinolin-7-yl)benzenesulfonamide]
CC1(C)C(=O)N(CCCO)c2cc(NS(=O)(=O)c3cccc(Cl)c3Cl)ccc21 [Compound 273]
CC(Nc1ccc2c(c1)C(=O)NC2(C)C)c1nc(Cl)c(Cl)s1 (racemic) [Compound 278, 6-[1-(4,5-dichlorothiazol-2-yl)ethylamino]-3,3-dimethyl-isoindolin-1-one]
Cc1n[nH]c(=O)c2cc(NC(CCO)c3nc(Cl)c(Cl)s3)ccc12 (racemic) [Example 294]
CC(Nc1cc(F)c2nc[nH]c(=O)c2c1)c1cncc(Cl)c1Cl (racemic) [Compound 354, 6-((1-(4,5-dichloropyridin-3-yl)ethyl)amino)-8-fluoroquinazolin-4(3H)-one]
CC(Nc1ccc2c(c1)N(CCO)C(=O)C2(C)C)c1nc(Cl)c(Cl)s1 (racemic) [Compound 277, 6-((1-(4,5-dichlorothiazol-2-yl)ethyl)amino)-1-(2-hydroxyethyl)-3,3-dimethylindolin-2-one]
CC1C(=O)Nc2cc(NS(=O)(=O)c3cccc(Cl)c3Cl)ccc21 (centres unmarked) [Compound 235]
CC(Nc1ccc2nc[nH]c(=O)c2c1)c1cccc(Cl)c1Cl (racemic) [Example 128, 6-((1-(2,3-dichlorophenyl)ethyl)amino)quinazolin-4(3H)-one]
Cc1c(Cl)c(C(C)Nc2ccc3cc[nH]c(=O)c3c2)nn1C (single isomer, unassigned) [Compound 226B]
CC(Nc1ccc2nc[nH]c(=O)c2n1)c1c(F)ccc(Cl)c1Cl (single isomer, unassigned) [Compound 387]
CC(Nc1ccc2c(c1)NC(=O)C2(C)C)c1nccc(Cl)c1Cl (racemic) [Example 210, 6-((1-(3,4-dichloropyridin-2-yl)ethyl)amino)-3,3-dimethylindolin-2-one]
CC(Nc1cc(F)c2ncn(-c3cn[nH]c3)c(=O)c2c1)c1nc(Cl)c(Cl)s1 (single isomer, unassigned) [Example 374]
CC(Nc1ccc2c(c1)c(C(=O)NCCO)nn2C)c1c(Cl)ccc(F)c1Cl (racemic) [Compound 282, 5-((1-(2,6-dichloro-3-fluorophenyl)ethyl)amino)-N-(2-hydroxyethyl)-1-methyl-1H-indazol-3-carboxamide]

IC50, 100 to 500 nM:
Clc1cccc(C(Nc2ccc3cccnc3c2)C2CCC2)c1Cl (centres unmarked) [Example 179, N-(cyclobutyl(2,3-dichlorophenyl)methyl)quinolin-7-amine]
CC(Nc1ccc2ccn(CC3CC3)c(=O)c2c1)c1cccc(Cl)c1Cl (racemic) [Compound 186, 2-(cyclopropylmethyl)-7-((1-(2,3-dichlorophenyl)ethyl)amino)isoquinolin-1(2H)-one]
Cc1nc2cc(NS(=O)(=O)c3cccc(Cl)c3Cl)ccc2s1 [Compound 29, 2,3-dichloro-N-(2-methylbenzo[d]thiazol-5-yl)benzenesulfonamide]
CC(Nc1ccc2cc[nH]c(=O)c2c1)c1nc(Cl)n(C)c1Cl (racemic) [Compound 308, 7-((1-(2,5-dichloro-1-methyl-1H-imidazol-4-yl)ethyl)amino)isoquinolin-1(2H)-one]
O=S(=O)(Nc1ccc2sc(Cl)nc2c1)c1cccc(Cl)c1Cl [Compound 33, 2,3-dichloro-N-(2-chlorobenzo[d]thiazol-5-yl)benzenesulfonamide]
COc1ncc(C(C)Nc2ccc3cc[nH]c(=O)c3c2)cc1Cl (racemic) [Example 117, 7-((1-(5-chloro-6-methoxypyridin-3-yl)ethyl)amino)isoquinolin-1(2H)-one]

What follows are molecules tested against T1, SARM1 (50-724) (assay: SARM1 (50-724) enzymatic assay). Details: SARM1 inhibitory activity; purified SARM1 (50-724) 2 nM, 200 μM NMN activator, 100 μM NAD+ substrate, LC-MS/MS.
Experimental: An enzymatic assay was performed in a 384-well plate using Dulbecco's phosphate-buffered saline (PBS) as the reaction buffer. […] The reaction was initiated by adding a mixture of 200 μM nicotinamide mononucleotide (NMN) as activator and 100 μM NAD^+ as substrate. After 1 h of incubation at room temperature, the reaction was terminated with 10 times volume of 70% acetonitrile, then centrifuged at 3800 rpm for 10 min.

IC50, < 100 nM:
CC(Nc1ccc2cc[nH]c(=O)c2c1)c1nccc(Cl)c1Cl (racemic) [Example 194, 7-((1-(3,4-dichloropyridin-2-yl)ethyl)amino)isoquinolin-1(2H)-one]
CC(Nc1ccc2c(c1)C(=O)NCC2)c1cccc(Cl)c1Cl (single isomer, unassigned) [Example 112]
